Reference: publication PMC4226840, “An open-label study to determine the maximum tolerated dose of the multitargeted tyrosine kinase inhibitor CEP-11981 in patients with advanced cancer” (Investigational New Drugs, 2014)

Columns and labels:
[1] = Plasma pharmacokinetics in patients, single and multiple doses; format: in vivo, human; settings: for Mean (SD) Robs (observed accumulation ratio): multiple doses, AUCτ day 15/AUC0–24 day 1; for Mean (SD) Rpred (predicted accumulation ratio): AUC0–∞/AUC0–24 day 1
Experimental: Pharmacokinetic parameters calculated after multiple doses included AUC0-t, Cmax, Tmax, and t½, and observed accumulation ratio (Robs). […] Pharmacodynamics was assessed by VEGFR-2/KDR inhibitory activity in response to CEP-11981 treatment. […] The venous blood samples for pharmacokinetic-pharmacodynamic analysis were collected on days 1 and 15 of dosing during cycle 1 immediately before dose administration and at 1 h postdose, and on day 43. At each draw, 2 samples were obtained in 6-mL sodium heparinized vacutainers. Plasma was obtained and stored at −70 °C until shipment to the sponsor for analysis.

[2] = system: Tie-2; design: method as in PMID 22148921; settings: cited from earlier work
[3] = system: Aurora A; design: method as in PMID 22148921; settings: cited from earlier work
[4] = system: VEGFR-2; design: method as in PMID 22148921; settings: in vitro; cited from earlier work
[5] = multiple doses (day 15, cycle 1), oral once daily, 55.0 mg/m^2, n = 4
[6] = multiple doses (day 15, cycle 1), oral once daily, 73.0 mg/m^2, n = 3
[7] = multiple doses (day 15, cycle 1), oral once daily, 126.6 mg/m^2, n = 2
[8] = single dose, oral, 3.0 mg/m^2, n = 3
[9] = single dose, oral, 4.2 mg/m^2, n = 3
[10] = single dose, oral, 5.9 mg/m^2, n = 5
[11] = single dose, oral, 11.8 mg/m^2, n = 3
[12] = single dose, oral, 19.7 mg/m^2, n = 3
[13] = single dose, oral, 29.6 mg/m^2, n = 4
[14] = single dose, oral, 41.4 mg/m^2, n = 3
[15] = single dose, oral, 55.0 mg/m^2, n = 5
[16] = single dose, oral, 73.0 mg/m^2, n = 3
[17] = single dose, oral, 126.6 mg/m^2, n = 2

## 11-(2-methylpropyl)-12,13-dihydro-2-methyl-8-(pyrimidin-2-ylamino)-4H-indazolo[5,4-a]pyrrolo[3,4-c]carbazol-4-one [CEP-11981]
[1]; [5]
  Mean (SD) Cmax: 320.7 (75.09) ng/mL
  Mean (SD) t½: 12.8 (4.32) hr
  Median (range) Tmax: 5.2 (3.0–8.0) hr
[1]; [6]
  Mean (SD) AUCτ: 9,429.0 (3,993.74) ng•hr/mL
  Mean (SD) Cmax: 713.0 (30.38) ng/mL
  Mean (SD) t½: 13.9 (9.48) hr
  Median (range) Tmax: 3.3 (3.1–3.5) hr
[1]; [7]
  Mean (SD) AUCτ: 23,565.0 (0) ng•hr/mL
  Mean (SD) Cmax: 1,481.5 (0) ng/mL
  Mean (SD) t½: 14.7 (0) hr
  Median (range) Tmax: 8.0 (8.0–8.0) hr
[1]; oral once daily, 3.0 mg/m^2, n = 3
  Mean (SD) Robs (observed accumulation ratio): 1.3 (0.62)
[1]; oral once daily, 4.2 mg/m^2, n = 3
  Mean (SD) Robs (observed accumulation ratio): 1.8 (0.64)
[1]; oral once daily, 5.9 mg/m^2, n = 5
  Mean (SD) Robs (observed accumulation ratio): 1.5 (0.59)
[1]; oral once daily, 11.8 mg/m^2, n = 3
  Mean (SD) Robs (observed accumulation ratio): 1.5 (0.15)
[1]; oral once daily, 19.7 mg/m^2, n = 3
  Mean (SD) Robs (observed accumulation ratio): 1.2 (0.29)
[1]; oral once daily, 29.6 mg/m^2, n = 4
  Mean (SD) Robs (observed accumulation ratio): 1.1 (1.24)
[1]; oral once daily, 41.4 mg/m^2, n = 3
  Mean (SD) Robs (observed accumulation ratio): 1.3 (0.46)
[1]; oral once daily, 55.0 mg/m^2, n = 4
  Mean (SD) Robs (observed accumulation ratio): 1.9 (0.19)
[1]; oral once daily, 73.0 mg/m^2, n = 3
  Mean (SD) Robs (observed accumulation ratio): 1.9 (0.14)
[1]; [8]
  Mean (SD) AUC0-24: 127.0 (16.09) ng•hr/mL
  Mean (SD) Cmax: 13.7 (6.14) ng/mL
  Mean (SD) t½: 8.0 (2.82) hr
  Median (range) Tmax: 6.0 (2.0–6.1) hr
  Mean (SD) Rpred (predicted accumulation ratio): 1.2 (0.15)
[1]; [9]
  Mean (SD) AUC0-24: 119.3 (14.36) ng•hr/mL
  Mean (SD) Cmax: 16.8 (4.88) ng/mL
  Mean (SD) t½: 7.8 (3.69) hr
  Median (range) Tmax: 4.0 (1.0–6.0) hr
  Mean (SD) Rpred (predicted accumulation ratio): 1.2 (0.12)
[1]; [10]
  Mean (SD) AUC0-24: 194.8 (66.56) ng•hr/mL
  Mean (SD) Cmax: 26.0 (6.53) ng/mL
  Mean (SD) t½: 5.9 (1.06) hr
  Median (range) Tmax: 2.1 (1.5–4.0) hr
  Mean (SD) Rpred (predicted accumulation ratio): 1.1 (0.05)
[1]; [11]
  Mean (SD) AUC0-24: 516.7 (125.82) ng•hr/mL
  Mean (SD) Cmax: 84.9 (23.01) ng/mL
  Mean (SD) t½: 6.0 (3.66) hr
  Median (range) Tmax: 1.6 (1.5–3.0) hr
  Mean (SD) Rpred (predicted accumulation ratio): 1.1 (0.12)
[1]; [12]
  Mean (SD) AUC0-24: 874.0 (357.79) ng•hr/mL
  Mean (SD) Cmax: 135.7 (76.46) ng/mL
  Mean (SD) t½: 5.1 (1.33) hr
  Median (range) Tmax: 4.0 (1.0–4.3) hr
  Mean (SD) Rpred (predicted accumulation ratio): 1.0 (0.06)
[1]; [13]
  Mean (SD) AUC0-24: 2,376.3 (2,064.06) ng•hr/mL
  Mean (SD) Cmax: 266.9 (181.95) ng/mL
  Mean (SD) t½: 8.5 (5.48) hr
  Median (range) Tmax: 2.3 (1.0–3.1) hr
  Mean (SD) Rpred (predicted accumulation ratio): 1.2 (0.22)
[1]; [14]
  Mean (SD) AUC0-24: 2,820.3 (2,070.39) ng•hr/mL
  Mean (SD) Cmax: 351.9 (94.39) ng/mL
  Mean (SD) t½: 8.1 (4.54) hr
  Median (range) Tmax: 2.0 (1.0–4.0) hr
  Mean (SD) Rpred (predicted accumulation ratio): 1.2 (0.21)
[1]; [15]
  Mean (SD) AUC0-24: 2,274.0 (666.44) ng•hr/mL
  Mean (SD) Cmax: 251.9 (119.68) ng/mL
  Mean (SD) t½: 9.5 (2.57) hr
  Median (range) Tmax: 3.0 (3.0–4.0) hr
  Mean (SD) Rpred (predicted accumulation ratio): 1.2 (0.11)
[1]; [16]
  Mean (SD) AUC0-24: 3,938.7 (1,965.70) ng•hr/mL
  Mean (SD) Cmax: 444.2 (149.44) ng/mL
  Mean (SD) t½: 8.1 (2.19) hr
  Median (range) Tmax: 4.0 (3.0–4.1) hr
  Mean (SD) Rpred (predicted accumulation ratio): 1.2 (0.10)
[1]; [17]
  Mean (SD) AUC0-24: 5,767.0 (0) ng•hr/mL
  Mean (SD) Cmax: 751.2 (41.49) ng/mL
  Median (range) Tmax: 5.0 (2.0–8.0) hr
[2]
  IC50: 22 nM
[3]
  IC50: 42 nM
[4]
  IC50: 4 nM
